Series [1] deals with T1, Cytochrome P450 1A2 (Homo sapiens, UniProt P05177).
T1 sequence (P05177 whole entry): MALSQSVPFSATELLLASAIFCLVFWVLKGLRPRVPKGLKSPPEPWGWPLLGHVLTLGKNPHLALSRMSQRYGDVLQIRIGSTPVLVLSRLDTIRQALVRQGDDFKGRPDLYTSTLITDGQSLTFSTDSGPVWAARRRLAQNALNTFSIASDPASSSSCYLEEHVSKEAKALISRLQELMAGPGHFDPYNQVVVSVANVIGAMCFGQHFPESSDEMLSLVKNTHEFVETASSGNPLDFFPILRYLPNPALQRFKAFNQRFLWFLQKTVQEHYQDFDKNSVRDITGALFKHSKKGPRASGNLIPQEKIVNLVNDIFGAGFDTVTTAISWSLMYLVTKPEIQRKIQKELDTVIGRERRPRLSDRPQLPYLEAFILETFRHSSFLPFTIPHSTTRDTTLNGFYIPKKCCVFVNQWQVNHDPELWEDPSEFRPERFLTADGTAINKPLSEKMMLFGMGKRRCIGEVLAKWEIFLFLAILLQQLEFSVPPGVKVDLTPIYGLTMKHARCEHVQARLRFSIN
Description: Inhibition of CYP1A2. The series is classed as ADME.

Series [2] can be described thus: (§1) Half life in rat at 1 mg/kg, iv. The format is ADME, organism-based. The arrangement: dose 1 mg/kg, route intravenous. As to conditions: in vivo.
Series [3] has as its target T2, Histamine H3 receptor (Homo sapiens, UniProt Q9Y5N1). Put plainly: Displacement of [3H]NAMH from human histamine H3 receptor expressed in CHO cell membrane. The format is cell membranes.
The nature of series [4]: AUC in rat at 5 mg/kg, po. The format is ADME, organism-based. The arrangement: dose 5 mg/kg, route oral. Particulars: plasma.
The nature of series [5]: Clearance in rat at 1 mg/kg, iv. The format is ADME, organism-based. Set-up: dose 1 mg/kg, route intravenous. Particulars: in vivo.
Series [6] concerns the target Histamine H3 receptor (Rattus norvegicus, UniProt Q9QYN8). Put plainly: Displacement of [3H]NAMH from rat histamine H3 receptor expressed in CHO cell membrane. The format is cell membranes. Background: Loss of bound radioactivity is the signal in a displacement assay; it reports binding, not function.
Series [7] has as its target Cytochrome P450 3A4 (Homo sapiens, UniProt P08684). Description: Inhibition of CYP3A4. The series is classed as ADME.
The target of series [8] is Cytochrome P450 2D6 (Homo sapiens, UniProt P10635). Description: Inhibition of CYP2D6. The format is ADME.
The target in series [9] is Cytochrome P450 2C19 (Homo sapiens, UniProt P33261). Description: Inhibition of CYP2C19. The format is ADME.
Series [10] has as its target hERG (KCNH2) (Homo sapiens, UniProt Q12809). Description: Displacement of astemizole from human ERG at 10 uM. As to conditions: probe astemizole.
The target of series [11] is Histamine H2 receptor (Homo sapiens) (UniProt P25021). Description: Binding affinity to human histamine H2 receptor at 10 uM by radioligand binding assay.
The species named for series [12] is Homo sapiens. Description: Selectivity ratio of Ki for human H4 receptor to Ki for human H3 receptor.
Series [13] is described as follows: (§2) Volume of distribution in rat at 1 mg/kg, iv. The format is ADME, organism-based. The arrangement: dose 1 mg/kg, route intravenous. Particulars: in vivo.
The species entered for series [14] is Homo sapiens. Description: Selectivity ratio of Ki for human H1 receptor to Ki for human H3 receptor.
For series [15], the species on record is Homo sapiens. Description: Selectivity ratio of Ki for human H2 receptor to Ki for human H3 receptor.
Series [16] in a line: Oral bioavailability in rat at 5 mg/kg. As to conditions: in vivo. The series is classed as ADME, organism-based.
Series [17] addresses Histamine H1 receptor (Homo sapiens) (UniProt P35367). Description: Binding affinity to human histamine H1 receptor at 10 uM by radioligand binding assay.
The target of series [18] is T2, Histamine H3 receptor. Description: Inverse agonist activity at human H3 receptor by [35S]GTPgamma binding assay. The series is classed as functional.
Series [19] has as its target Histamine H4 receptor (Homo sapiens) (UniProt Q9H3N8). Put plainly: Binding affinity to human histamine H4 receptor at 10 uM by radioligand binding assay.
In series [20] the target is Cytochrome P450 2C9 (Homo sapiens, UniProt P11712). Put plainly: Inhibition of CYP2C9. The format is ADME.
Series [21] in a line: Cmax in rat at 5 mg/kg, po. Set-up: dose 5 mg/kg, route oral. The format is ADME, organism-based. Particulars: in vivo.
Series [22] concerns Rattus norvegicus. The series is described as §1. The series is classed as ADME, organism-based. The arrangement: dose 1 mg/kg, route intravenous. Particulars: in vivo.
A short description of series [23]: Ratio of drug uptake in brain to plasma in rat at 5 mg/kg, po. The format is ADME, organism-based. The arrangement: dose 5 mg/kg, route oral. Particulars: read-out: BPR.
Series [24] deals with Rattus norvegicus. The series is described as §2. The arrangement: dose 1 mg/kg, route intravenous. The series is classed as ADME, organism-based. Particulars: in vivo.
A short description of series [25]: Drug uptake in rat brain at 5 mg/kg, po after 6 hrs. The arrangement: dose 5 mg/kg, route oral. Particulars: read-out: Drug uptake. The series is classed as ADME, organism-based.

The text below walks through data of ChEMBL document CHEMBL2029210, “Synthesis of constrained benzocinnolinone analogues of CEP-26401 (irdabisant) as potent, selective histamine H3 receptor inverse agonists” (Bioorg Med Chem Lett, 2012).

For orientation: IC50 means the midpoint of a concentration-inhibition curve. As usually defined, the half-life is how long it takes for the measured level to halve. One may read the Ki as a dissociation constant, usually derived from enzyme kinetics or from competition with a known ligand. Broadly, the AUC is the area under the concentration-time curve, a measure of exposure. A high value points to high exposure. In general, clearance refers to the volume of plasma or blood freed of the substance per unit of time. Broadly, the inhibition is the change of the read-out against control, counted positive when it falls. Usually Vd stands for the apparent volume that relates the amount in the body to the concentration in plasma or blood. Low readings indicate little distribution into tissue, high ones wide distribution into tissue. One may read the bioavailability as dose-corrected exposure relative to a reference, in per cent. A lower bioavailability goes with little systemic uptake. One may read the EC50 as the concentration at which the effect is half-maximal. A lower EC50 goes with an effect from little substance. What is called Cmax is the highest concentration seen after dosing.

T2 sequence (Q9Y5N1 whole entry): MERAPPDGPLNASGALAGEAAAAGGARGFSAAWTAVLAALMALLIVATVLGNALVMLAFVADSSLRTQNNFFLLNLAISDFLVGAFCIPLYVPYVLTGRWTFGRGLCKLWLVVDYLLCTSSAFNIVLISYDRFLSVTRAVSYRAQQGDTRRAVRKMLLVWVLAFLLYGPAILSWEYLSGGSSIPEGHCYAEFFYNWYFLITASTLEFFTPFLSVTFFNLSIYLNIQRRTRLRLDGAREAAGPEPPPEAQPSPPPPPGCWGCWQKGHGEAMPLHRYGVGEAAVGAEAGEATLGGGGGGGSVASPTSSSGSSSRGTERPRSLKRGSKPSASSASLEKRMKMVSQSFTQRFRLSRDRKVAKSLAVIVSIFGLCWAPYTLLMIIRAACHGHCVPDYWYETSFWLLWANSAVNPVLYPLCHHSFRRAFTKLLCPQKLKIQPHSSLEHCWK
Histamine H3 receptor (Rattus norvegicus, UniProt Q9QYN8), sequence (Q9QYN8 whole entry): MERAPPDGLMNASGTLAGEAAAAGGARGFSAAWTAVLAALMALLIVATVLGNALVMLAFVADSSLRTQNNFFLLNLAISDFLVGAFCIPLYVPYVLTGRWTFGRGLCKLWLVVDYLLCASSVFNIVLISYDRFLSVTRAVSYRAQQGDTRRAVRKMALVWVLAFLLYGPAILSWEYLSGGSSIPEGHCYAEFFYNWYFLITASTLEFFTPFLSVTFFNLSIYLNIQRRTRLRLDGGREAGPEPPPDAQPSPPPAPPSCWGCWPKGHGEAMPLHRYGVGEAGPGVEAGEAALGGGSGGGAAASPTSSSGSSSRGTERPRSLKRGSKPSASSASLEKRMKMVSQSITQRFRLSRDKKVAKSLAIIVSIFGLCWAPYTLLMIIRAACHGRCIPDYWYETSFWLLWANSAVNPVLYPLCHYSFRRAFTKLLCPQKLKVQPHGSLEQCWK
Histamine H2 receptor (Homo sapiens), sequence (P25021 whole entry): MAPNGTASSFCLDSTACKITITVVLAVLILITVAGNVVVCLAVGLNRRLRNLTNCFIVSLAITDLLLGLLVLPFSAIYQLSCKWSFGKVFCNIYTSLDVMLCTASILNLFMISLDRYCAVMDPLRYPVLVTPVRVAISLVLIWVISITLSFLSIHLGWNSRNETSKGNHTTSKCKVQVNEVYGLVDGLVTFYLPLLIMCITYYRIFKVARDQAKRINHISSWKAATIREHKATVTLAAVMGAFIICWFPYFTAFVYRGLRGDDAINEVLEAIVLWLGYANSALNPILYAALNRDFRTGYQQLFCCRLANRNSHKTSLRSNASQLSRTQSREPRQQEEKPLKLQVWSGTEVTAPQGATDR
Histamine H1 receptor (Homo sapiens), sequence (P35367 whole entry): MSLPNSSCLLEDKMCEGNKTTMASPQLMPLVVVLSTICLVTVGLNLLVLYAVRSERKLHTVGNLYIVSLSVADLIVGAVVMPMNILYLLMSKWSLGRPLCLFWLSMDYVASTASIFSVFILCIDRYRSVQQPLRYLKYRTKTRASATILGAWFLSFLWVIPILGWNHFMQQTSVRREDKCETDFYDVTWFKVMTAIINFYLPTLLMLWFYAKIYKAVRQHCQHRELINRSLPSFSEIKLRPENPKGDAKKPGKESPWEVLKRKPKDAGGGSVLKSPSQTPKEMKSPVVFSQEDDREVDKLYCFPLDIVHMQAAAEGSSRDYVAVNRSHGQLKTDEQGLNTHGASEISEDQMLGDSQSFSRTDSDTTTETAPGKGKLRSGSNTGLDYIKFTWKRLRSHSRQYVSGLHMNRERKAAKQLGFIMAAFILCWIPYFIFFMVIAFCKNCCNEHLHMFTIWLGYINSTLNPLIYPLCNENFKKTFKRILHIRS
Histamine H4 receptor (Homo sapiens), sequence (Q9H3N8 whole entry): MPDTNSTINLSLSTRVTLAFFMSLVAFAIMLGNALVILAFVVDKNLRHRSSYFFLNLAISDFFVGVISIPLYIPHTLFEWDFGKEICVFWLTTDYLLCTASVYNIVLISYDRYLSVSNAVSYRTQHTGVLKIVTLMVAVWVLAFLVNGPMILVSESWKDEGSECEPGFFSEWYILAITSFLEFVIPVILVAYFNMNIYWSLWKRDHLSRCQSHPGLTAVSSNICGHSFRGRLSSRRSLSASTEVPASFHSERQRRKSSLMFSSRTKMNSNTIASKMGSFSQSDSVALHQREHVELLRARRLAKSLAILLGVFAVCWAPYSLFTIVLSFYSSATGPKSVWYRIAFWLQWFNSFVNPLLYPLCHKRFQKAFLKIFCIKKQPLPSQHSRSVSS
Cytochrome P450 3A4, sequence (P08684 whole entry): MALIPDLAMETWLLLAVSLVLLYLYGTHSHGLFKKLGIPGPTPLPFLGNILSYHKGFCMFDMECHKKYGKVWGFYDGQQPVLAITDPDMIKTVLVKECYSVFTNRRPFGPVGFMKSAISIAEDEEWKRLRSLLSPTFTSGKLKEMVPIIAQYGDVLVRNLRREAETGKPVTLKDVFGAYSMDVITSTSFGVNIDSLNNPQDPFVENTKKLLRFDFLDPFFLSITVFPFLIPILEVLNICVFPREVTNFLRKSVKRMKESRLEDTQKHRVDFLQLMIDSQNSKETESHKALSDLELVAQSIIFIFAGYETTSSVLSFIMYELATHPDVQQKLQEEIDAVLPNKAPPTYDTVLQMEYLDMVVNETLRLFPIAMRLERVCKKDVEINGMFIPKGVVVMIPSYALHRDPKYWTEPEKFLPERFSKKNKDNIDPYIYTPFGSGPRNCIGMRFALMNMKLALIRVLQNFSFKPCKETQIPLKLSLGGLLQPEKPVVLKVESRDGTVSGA
Cytochrome P450 2C9, sequence (P11712 whole entry): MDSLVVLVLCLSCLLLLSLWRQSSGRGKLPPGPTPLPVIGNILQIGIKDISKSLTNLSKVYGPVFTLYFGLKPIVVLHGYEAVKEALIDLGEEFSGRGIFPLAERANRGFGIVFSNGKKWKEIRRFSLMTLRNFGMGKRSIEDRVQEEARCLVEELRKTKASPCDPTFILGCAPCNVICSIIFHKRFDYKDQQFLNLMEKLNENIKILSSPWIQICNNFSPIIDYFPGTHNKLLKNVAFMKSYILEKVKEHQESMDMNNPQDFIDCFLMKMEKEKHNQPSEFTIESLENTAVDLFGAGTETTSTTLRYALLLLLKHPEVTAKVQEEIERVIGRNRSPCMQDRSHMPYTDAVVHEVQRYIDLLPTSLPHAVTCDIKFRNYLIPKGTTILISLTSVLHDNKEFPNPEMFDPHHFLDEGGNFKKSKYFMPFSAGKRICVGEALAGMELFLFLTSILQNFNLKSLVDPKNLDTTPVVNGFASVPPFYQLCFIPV
hERG (KCNH2), sequence (Q12809 whole entry): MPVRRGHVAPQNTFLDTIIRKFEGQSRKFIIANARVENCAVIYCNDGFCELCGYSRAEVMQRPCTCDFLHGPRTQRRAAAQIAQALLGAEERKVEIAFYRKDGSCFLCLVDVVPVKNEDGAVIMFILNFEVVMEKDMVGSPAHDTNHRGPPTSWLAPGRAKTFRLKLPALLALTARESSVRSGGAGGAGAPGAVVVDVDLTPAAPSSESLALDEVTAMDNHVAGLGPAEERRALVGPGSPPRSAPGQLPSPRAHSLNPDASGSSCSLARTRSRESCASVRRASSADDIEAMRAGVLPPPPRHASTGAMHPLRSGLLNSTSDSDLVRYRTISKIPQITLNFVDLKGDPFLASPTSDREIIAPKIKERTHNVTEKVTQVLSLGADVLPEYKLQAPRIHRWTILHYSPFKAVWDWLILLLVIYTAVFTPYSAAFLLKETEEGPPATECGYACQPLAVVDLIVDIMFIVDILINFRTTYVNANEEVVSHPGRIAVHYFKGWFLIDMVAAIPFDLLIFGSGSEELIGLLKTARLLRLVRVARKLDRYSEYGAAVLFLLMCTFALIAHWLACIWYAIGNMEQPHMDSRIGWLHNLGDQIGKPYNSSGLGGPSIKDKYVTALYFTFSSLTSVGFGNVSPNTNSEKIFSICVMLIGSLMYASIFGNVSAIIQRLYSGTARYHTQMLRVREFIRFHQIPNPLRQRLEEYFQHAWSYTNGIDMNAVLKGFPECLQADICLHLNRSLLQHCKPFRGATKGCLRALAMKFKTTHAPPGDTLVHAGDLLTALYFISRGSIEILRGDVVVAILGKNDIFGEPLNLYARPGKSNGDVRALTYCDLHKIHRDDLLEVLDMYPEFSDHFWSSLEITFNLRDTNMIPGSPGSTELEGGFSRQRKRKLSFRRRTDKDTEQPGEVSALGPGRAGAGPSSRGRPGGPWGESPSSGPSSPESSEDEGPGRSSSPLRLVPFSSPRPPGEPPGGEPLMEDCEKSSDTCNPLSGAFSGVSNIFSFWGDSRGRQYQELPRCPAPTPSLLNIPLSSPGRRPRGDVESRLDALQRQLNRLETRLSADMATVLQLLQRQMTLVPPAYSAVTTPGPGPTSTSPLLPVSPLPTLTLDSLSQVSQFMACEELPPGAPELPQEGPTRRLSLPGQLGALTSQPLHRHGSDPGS
Cytochrome P450 2C19, sequence (P33261 whole entry): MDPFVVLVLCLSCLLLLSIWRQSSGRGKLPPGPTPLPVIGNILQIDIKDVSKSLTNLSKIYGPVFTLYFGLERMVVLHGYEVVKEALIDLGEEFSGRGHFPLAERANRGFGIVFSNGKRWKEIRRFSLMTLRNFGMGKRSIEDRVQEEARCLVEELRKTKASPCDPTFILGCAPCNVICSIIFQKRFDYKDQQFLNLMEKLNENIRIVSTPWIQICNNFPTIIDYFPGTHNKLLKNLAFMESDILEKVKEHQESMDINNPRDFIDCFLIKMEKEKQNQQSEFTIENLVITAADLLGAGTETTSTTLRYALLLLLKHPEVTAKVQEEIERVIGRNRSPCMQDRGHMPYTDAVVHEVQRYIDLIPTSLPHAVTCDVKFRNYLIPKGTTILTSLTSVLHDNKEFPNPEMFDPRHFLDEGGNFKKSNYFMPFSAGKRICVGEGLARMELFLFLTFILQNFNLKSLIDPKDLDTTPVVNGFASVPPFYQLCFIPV

Regarding `C[C@@H]1CCCN1CCCOc1ccc2c(c1)CCc1cc(=O)n(C)nc1-2`, the IC50 in series [1], in [7], in series [8], in [9] and in [20] was greater than 30000 nM each time. This compound also gave a half-life in series [2] of 24 min. Further, the Ki in series [3] is 3.6 nM; in series [6], 8.3 nM. In series [4], this compound came in with an AUC of 80 ng·h/mL. The compound also gave a clearance in series [5] of 36 mL/min/kg. In [10], this compound had an inhibition at 10 µM of 34%. Also, the inhibition in [11], in series [17] and in series [19] was less than 40% in each case. Besides, the Ratio Ki in series [12], in series [14] and in series [15] was greater than 1000 throughout. Moreover, in [13], the Vd was 1.3 L/kg. The compound further showed a bioavailability in [16] of 3%. For the same compound, the EC50 in series [18] stood at 1.7 nM. This compound displayed a Cmax in [21] of 24 ng/mL.

For the compound `O=c1cc2c(nn1Cc1ccccc1)-c1ccc(OCCCN3CCCCC3)cc1CC2`, the Ki in series [3] is 105 nM; in series [6], 140 nM.

In turn, `C[C@@H]1CCCN1CCCOc1ccc2c(c1)CCc1cc(=O)[nH]nc1-2` had a half-life in series [2] of 84 min. The results for the Ki in [3] and in [6] were 4.3 nM and 14 nM, respectively. In series [4], this compound returned an AUC of 191 ng·h/mL. For the same compound, the clearance in series [5] was 11 mL/min/kg. Also, the inhibition in series [11], in [17] and in series [19] was less than 40% in each case. Moreover, the Ratio Ki in [12], in [14] and in series [15] was greater than 1000 each time. In addition, the Vd in series [13] stood at 1.2 L/kg. Moreover, the bioavailability in series [16] was determined as 2%. This compound had a Cmax in series [21] of 34 ng/mL.

In the case of `C[C@@H]1CCCN1CCCOc1ccc2c(c1)CCc1n[nH]c(=O)cc1-2`, the inhibition constant Ki in series [3] worked out at 6.2 nM; in series [6], 19 nM. Also, the inhibition in [11], in [17] and in series [19] was less than 45% in each case.

In the case of `C[C@@H]1CCCN1CCCOc1ccc2c(c1)CCC1CC(=O)NN=C21` (mixture of isomers), the half-life in [2] was 42 min. Moreover, the figures for the Ki in series [3] and in series [6] were 15 nM and 53 nM, respectively. For the same compound, the AUC in series [4] is 96 ng·h/mL. Moreover, the clearance in series [5] amounted to 93 mL/min/kg. In series [13], this compound returned a Vd of 6 L/kg. In series [16], this compound displayed a bioavailability of 11%. For the same compound, the concentration in series [21] peaked (Cmax) at 27 ng/mL.

In the case of `CC(C)n1nc2c(cc1=O)CCc1cc(OCCCN3CCC[C@H]3C)ccc1-2`, the figures for the Ki in [3] and in [6] were 4.2 nM and 17 nM, respectively. The inhibition in series [11], in series [17] and in series [19] was less than 40% each time. Also, the Ratio Ki in series [12], in series [14] and in [15] was greater than 1000 each time.

With `C[C@@H]1CCCN1CCCOc1ccc2c(c1)CCc1cc(=O)n(-c3ccccc3)nc1-2`, the Ki in [3] was 16 nM; in series [6], 23 nM.

In turn, `O=C1CC2CCc3cc(OC4CCN(C5CCC5)CC4)ccc3C2=NN1` (racemic) returned a t1/2 in series [22] of 54 min. The Ki in [3] turned out to be 17 nM; in series [6], 26 nM. In [4], this compound had an AUC of 468 ng·h/mL. The Kp in [23] was 5.2. The compound also came in with a Vd in series [24] of 6.6 L/kg. For the same compound, the concentration at 6 h in series [25] turned out to be 780 nM. This compound displayed a bioavailability in [16] of 44%. In addition, the Cmax in series [21] came out at 75 ng/mL.
